{
  "source": "patent US20130064794A1",
  "about": "“Substituted Carbonyloxymethylphosphoramidate Compounds and Pharmaceutical Compositions for the Treatment of Viral Infections” (IDENIX PHARMACEUTICALS, INC., priority 2011, published 2013)",
  "key": {"Huh-7 cells": {"tested_on": "Huh-7 cells", "assay": "Release of active metabolite in Huh-7 cells", "assay_type": "in vitro ADME", "details": "intracellular triphosphate, 10 μM test compound", "protocol": "Huh-7 cells were plated in 1 mL culture medium (DMEM, containing glucose, L-glutamine and sodium pyruvate, 10% FBS, 100 IU/mL penicillin, 100 μg/mL streptomycin, 2 mM GlutaMAX, 1% MEM non-essential amino acids) at the concentration 0.8, 0.4 and 0.2 million cells per well on 6 well plates for 24, 48 and 72 hr treatment, respectively. Plated cells were incubated overnight at 37° C. in an incubator.\nThe following morning the test compound was diluted to 20 μM from a stock solution in DMSO in fresh culture medium pre-warmed to 37° C. and 1 mL of the solution/well was added to cells. A final medium volume per well was 2.0 mL, the test compound concentration in well was 10 μM and final DMSO concentration was 0.1%.\nAfter 24, 48 or 72 hr, the medium was carefully removed and cell monolayers were washed twice with 2 mL ice-cold PBS per well. Following the last wash, all PBS was carefully removed and 1.0 mL of extraction solution (ice-cold 70% methanol) added. The plate was tightly covered with Parafilm, plastic plate cover and Parafilm again and an intracellular content was extracted at −20° C. for 24 hr.\nAfter 24 hr extracts were transferred into polypropylene microfuge tubes and dry on a refrigerated centrivap concentrator. Dry residues were reconstituted in 250 μL of HPLC-grade water and centrifuged at 16,000×g for 10 min. […]"}, "HCV genotype 1b replicon": {"tested_on": "HCV genotype 1b replicon", "assay": "microbe, parasite or virus in culture", "assay_type": "cell-based", "details": "read-out: HCV Replicon EC50", "protocol": "Huh-7-derived cell line (Zluc) that harbors an HCV genotype 1b replicon and a luciferase reporter gene was grown in Dulbecco's Modified Eagle Medium (DMEM) supplemented with 10% fetal bovine serum, 2 mM GlutaMAX, 1% MEM nonessential amino acids, 100 IU/mL penicillin, 100 μg/mL streptomycin, and 0.5 mg/mL Geneticin® (G418). For dose response testing the cells were seeded in 96-well plates at 7.5×10^3 cells per well in a volume of 50 μL, and incubated at 37° C./5% CO2. Drug solutions were made up freshly in Huh-7 media as 2× stocks. Ten additional 5-fold dilutions were prepared from these stocks in DMEM without G418. At least three hours after Zluc cells were seeded, drug treatment was initiated by adding 50 μL of drug dilutions to the plates in duplicate. […] Cells were then incubated at 37° C./5% CO2. Alternatively compounds were tested at two concentrations (10 nM and 100 nM). […] For this, media was removed from the plates via gentle tapping. Fifty microliters of ONE-glo luciferase assay reagent was added to each well. […] The EC50 values were calculated from dose response curves from the resulting best-fit equations determined by Microsoft Excel and XLfit 4.1 software."}, "[1]": {"assay": "Stability in simulated gastric fluid (SGF)", "assay_type": "in vitro ADME", "details": "100 μM, 2 hours at 37° C.", "protocol": "(§1) Simulated gastric and intestinal fluids containing pepsin and pancreatin respectively were prepared according to the U.S. Pharmacopoeia USP291 procedure (www.pharmacopeia.cn/v29240/usp29nf24s0_ris1s126.html). Test compound (final concentration 100 μM) was incubated in duplicate in the appropriate fluid for 2 hours at 37° C. The samples were quenched with 200 μl cold acetonitrile, vortexed for 30 seconds and then centrifuged at 16,100 g for 10 min. The supernatants were analyzed by HPLC on a C-18 column with UV detection at 252 nm. The time 0 samples were prepared by adding SGF or SIF fluid to the quenching solvent followed by the test compound. Stability of the compound was determined by peak area the test compound after incubation and calculated as percent of the peak area observed at time zero."}, "[2]": {"assay": "Stability in simulated intestinal fluid (SIF)", "assay_type": "in vitro ADME", "details": "100 μM, 2 hours at 37° C.", "protocol": "as §1"}, "[3]": {"assay": "Cytotoxicity evaluation, CellTiter-Blue Cell Viability Assay", "assay_type": "cell-based", "details": "human, Zluc cells (Huh-7-derived cell line), read-out: HCV Replicon CC50", "protocol": "(§2) For cytotoxicity evaluation, Zluc cells were treated with compound as described above, and cell viability was monitored using the CellTiter-Blue Cell Viability Assay (Promega) by adding 20 μL of the assay solution to each well. The plates were then incubated at 37° C./5% CO2 for at least 3 hours."}, "[4]": {"tested_on": "Zluc cells (Huh-7-derived cell line)", "assay": "Cytotoxicity evaluation, CellTiter-Blue Cell Viability Assay", "assay_type": "cell-based", "details": "read-out: HCV Replicon CC50", "protocol": "as §2"}},
  "note": "Read-outs that look alike come from different tables or passages of the source.",
  "data": [
    {"smiles": "CCOC(=O)OC(C)OP(=O)(N[C@@H](C)C(=O)OC(C)C)OC[C@H]1O[C@@H](n2cnc3c(OC)nc(N)nc32)[C@](C)(F)[C@@H]1O", "note": "(single isomer, unassigned) [Compound 14]", "values": [
      {"measurement": "Huh-7 TP Cmax", "setting": "Huh-7 cells", "result": 410, "unit": "pmol/mill cells"},
      {"measurement": "EC50", "setting": "HCV genotype 1b replicon; Hepatitis C virus, 72 h", "result": "< 0.1", "unit": "µM"},
      {"measurement": "Percent Remaining, SGF", "setting": "[1]", "result": 91, "unit": "%"},
      {"measurement": "Percent Remaining, SIF", "setting": "[2]", "result": 39, "unit": "%"},
      {"measurement": "CC50", "setting": "[3]", "result": "> 50", "unit": "µM"}
    ]},
    {"smiles": "CCOC(=O)OC(C)OP(=O)(N[C@@H](C)C(=O)OC(C)C)OC[C@H]1O[C@@H](n2cnc3c(OC)nc(N)nc32)[C@](C)(F)[C@@H]1O", "note": "(single isomer, unassigned) [Compound 15]", "values": [
      {"measurement": "Huh-7 TP Cmax", "setting": "Huh-7 cells", "result": 198, "unit": "pmol/mill cells"},
      {"measurement": "EC50", "setting": "HCV genotype 1b replicon; Zluc cells, HCV genotype 1b replicon, luciferase, 72 hours of incubation", "result": "< 0.1", "unit": "µM"},
      {"measurement": "Percent Remaining, SGF", "setting": "[1]", "result": 97, "unit": "%"},
      {"measurement": "Percent Remaining, SIF", "setting": "[2]", "result": 0, "unit": "%"},
      {"measurement": "CC50", "setting": "[4]", "result": "> 50", "unit": "µM"}
    ]}
  ]
}
